Converted amounts (≈) assume the structure as drawn.
What was measured:
[1] = Rat liver microsome stability (RLM) experiment; type: in vitro ADME; details: rat liver microsomal stability, Table 5, compounds of the disclosure and comparative compounds
Experimental: Effect embodiment 3 Rat liver microsome stability (RLM) experiment
Rat liver microsomes (Xenotech, item No. R1000, lot No. 1310030), 100 mM potassium phosphate buffer solution (pH 7.4), 10 mM magnesium chloride.
Compound preparation: 5 μL of compound DMSO mother liquor (10 mM) was added to 495 μL of methanol to obtain an intermediate solution with a compound concentration of 100 μM. Then 50 μL of the intermediate solution was taken and dissolved in 450 μL of potassium phosphate buffer solution to obtain a test solution with a final concentration of 10 μM.
NADPH regeneration system (concentration of isocitrate dehydrogenase 1 unit/mL).
Liver microsomes (final concentration 0.5 mg protein/mL).
Reaction termination solution: cold acetonitrile containing 100 ng/mL Tolbutamide and 100 ng/mL Labetalol as an internal standard.
• (1) Preparation of buffer solution: • Buffer solution A: 1.0 L of 0.1 M potassium phosphate buffer solution containing 1.0 mM EDTA • Buffer solution B: 1.0 L of 0.1 M dipotassium phosphate buffer solution containing 1.0 mM EDTA • Buffer solution C: 0.1 M potassium phosphate buffer, 1.0 mM EDTA, pH 7.4, titrated with 700 mL of buffer solution B and buffer solution A, monitored by pH meter. • (2) Preparation of reference substance (ketanserin) and concentration of administration solution of the test substance:
[…]: […] 10 mM DMSO reference substance stock solution and test substance stock solution were added to 190 μL of ACN, respectively. 1.5 μM administration solution (containing 0.75 mg/mL liver microsomes): […] administration solution and 18.75 μL of 20 mg/mL liver microsomes were added to 479.75 μL of buffer C on a wet ice. • (3) NADPH was added to buffer solution C to obtain a NADPH stock solution (6 mM). • (4) 30 μL of 1.5 μM administration solution (containing 0.75 mg/mL of liver microsomes) was taken on the wet ice and added to the wells of the test plate at different time points (0-, 5-, 15-, 30-, 45-min), respectively. • (5) Firstly, 135 μL of ACN containing IS was added to the wells of a 0 min test plate, and then 15 μL of the NADPH stock solution (6 mM) was added. • (6) The test plate at other time points and the NADPH stock solution were pre-heated in a 37° C. water bath for 5 minutes. • (7) 15 μL of the NADPH stock solution (6 mM) was taken and added to a pre-incubated test plate, and the reaction was started and timed. • (8) At 5 min, 15 min, 30 min and 45 min, 135 μL of CAN containing IS was added to the corresponding test plate respectively, and the test was completed. • (9) Test plates were shaken with a shaker (IKA, MTS 2/4) for 10 min (600 rpm/min) and then centrifuged for 15 min (Thermo Multifuge×3R, 5594 g). • (10) 50 μL of supernatant from each well was added to a 96-well sample plate containing 50 μL of ultrapure water (Millipore, ZMQS50F01), and the samples were analyzed by LC/MS.

[2] = target: T1, α5-GABAA receptor (Homo sapiens, UniProt P18507+P31644); assay: Cell-level screening: whole cell patch clamp, inverse agonist efficacy on α5-GABAA receptor expressed in HEK293; type: cell-based; details: drug 100 nM, GABA 0.05 μM, HEK293 expressing α5, β3 and γ2 subunits, clamped at −60 mV; read-out: Compound inverse agonist efficacy %
T1 construct: expressed in transfected cells; host or cells: HEK293, monoclonal stably transfected line
Summary of the method: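 Whole-cell patch clamp at −60 mV on HEK293 stably expressing α5β3γ2, pH 7.4 extracellular/CsCl internal solutions. Current evoked by 0.05 μM GABA, then compound in GABA solution; screening at 100 nM, dose-response 0.3–300 nM. Inverse agonist efficacy as % change of GABA current.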

[3] = Thermodynamic solubility in simulated intestinal fluid (TS in FaSSIF); type: physicochemical; details: thermodynamic from solid, 37° C.
Experimental: Simulated intestinal fluid FaSSIF: 54.76 mg of FaSSIF-V2 (Biorelevant, batch. V2FAS-0619-A, lot. V2FAS01) was weighed and added to 15 mL of a buffer solution. After dissolving, the solution was supplemented to 30 mL, and put at room temperature for 1 hour before use.
Waters e2695 HPLC high performance liquid chromatography, Mettler XSE105 analytical balance.
Firstly, a 10 mM stock solution was prepared with DMSO, and was diluted with a diluent (ACN: PB buffer 50:50) into 1 μM-200 μM as a standard solution.
Thermodynamic solubility in intestinal fluid (TS in FaSSIF) was simulated. About 0.3 mg of each sample was weighed and added to 1.5 mL of FaSSIF solution, with two parts in parallel, shaken at 1000 rpm at 37° C. for 4 hours, filtered. 1 mL of an initial filtrate was discarded, and 400 μL of the subsequent filtrate was taken. The filtrate was detected by high performance liquid chromatograph (UV).

T1 sequence (P31644 32-462): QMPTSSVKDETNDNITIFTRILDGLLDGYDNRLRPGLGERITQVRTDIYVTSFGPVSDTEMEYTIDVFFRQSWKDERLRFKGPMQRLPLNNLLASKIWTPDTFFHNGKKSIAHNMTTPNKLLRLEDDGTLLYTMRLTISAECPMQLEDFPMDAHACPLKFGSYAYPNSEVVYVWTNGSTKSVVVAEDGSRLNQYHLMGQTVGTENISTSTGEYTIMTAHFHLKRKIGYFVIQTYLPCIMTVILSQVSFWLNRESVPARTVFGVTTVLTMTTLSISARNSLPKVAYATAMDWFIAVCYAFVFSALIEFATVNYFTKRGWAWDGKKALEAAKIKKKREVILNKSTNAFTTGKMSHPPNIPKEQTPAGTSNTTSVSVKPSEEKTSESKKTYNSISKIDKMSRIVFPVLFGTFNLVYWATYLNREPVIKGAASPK
T1 sequence (P28472 26-473 partner): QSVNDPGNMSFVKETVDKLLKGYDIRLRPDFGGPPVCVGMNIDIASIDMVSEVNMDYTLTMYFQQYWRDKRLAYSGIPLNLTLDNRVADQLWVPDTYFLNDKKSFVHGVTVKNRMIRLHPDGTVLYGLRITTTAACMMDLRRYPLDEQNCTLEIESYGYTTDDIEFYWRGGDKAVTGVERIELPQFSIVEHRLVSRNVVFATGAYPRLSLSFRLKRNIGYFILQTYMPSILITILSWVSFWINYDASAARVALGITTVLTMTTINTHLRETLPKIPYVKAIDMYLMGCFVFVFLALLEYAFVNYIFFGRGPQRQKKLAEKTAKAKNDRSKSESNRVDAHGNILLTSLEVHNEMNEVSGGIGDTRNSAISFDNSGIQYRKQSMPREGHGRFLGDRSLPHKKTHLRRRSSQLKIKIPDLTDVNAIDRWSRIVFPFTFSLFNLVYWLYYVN
T1 sequence (P18507 40-467 isoform P18507-1 limits assumed): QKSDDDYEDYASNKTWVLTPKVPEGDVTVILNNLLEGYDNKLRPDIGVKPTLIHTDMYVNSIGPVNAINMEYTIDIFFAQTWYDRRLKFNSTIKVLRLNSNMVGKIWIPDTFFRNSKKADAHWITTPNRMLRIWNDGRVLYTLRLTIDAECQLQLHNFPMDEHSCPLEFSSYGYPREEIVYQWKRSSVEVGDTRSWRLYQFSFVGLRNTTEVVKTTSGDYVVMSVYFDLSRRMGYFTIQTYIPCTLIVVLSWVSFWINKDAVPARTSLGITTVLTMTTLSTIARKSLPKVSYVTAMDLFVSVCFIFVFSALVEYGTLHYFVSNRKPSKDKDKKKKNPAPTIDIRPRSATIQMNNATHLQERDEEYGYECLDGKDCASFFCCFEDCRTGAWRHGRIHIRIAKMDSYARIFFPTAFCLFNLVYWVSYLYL

RLM [1] [µL/min/mg]	inhibition at 0.1 µM [2] [%]	solubility thermodynamic at 4 h [3] [µg/mL]	Compound
0.3			COc1cc2nnc(-c3cc(C)on3)n2nc1OCc1ccccn1 [drawing 922]
26			CCNC(=O)c1ccc(COc2nn3c(-c4cc(C)on4)nnc3c3ccccc23)nc1 [drawing 926, reference compound]
	45.2	40.4 (≈ 105 µM)	COc1ccc(COc2nn3c(-c4cc(CO)on4)nnc3cc2OC)nc1 [Embodiment 47, (3-(7-Methoxy-6-((5-methoxypyridin-2-yl)methoxy)-[1,2,4]triazolo[4,3-b]pyridazine-3-yl)isoxazol-5-yl)methanol]
	51.3	146 (≈ 358 µM)	CCN1Cc2ccc(COc3nn4c(-c5cc(C)on5)nnc4cc3OC)nc2C1 [Embodiment 68]
	42.5	408 (≈ 907 µM)	CCN1CCC(c2cccc(COc3nn4c(-c5cc(C)on5)nnc4cc3OC)n2)CC1 [Embodiment 167]
	60.4	32.7 (≈ 70.8 µM)	COc1cc2nnc(-c3cc(C)on3)n2nc1OCc1ccc2ncn(C3CCOCC3)c2n1 [Embodiment 247]
	40.7	306 (≈ 752 µM)	COc1cc2nnc(-c3cc(C)on3)n2nc1OCc1ccc(CN2CCC2)cn1 [Embodiment 169]
	35.4	49.2 (≈ 145 µM)	COc1cc2nnc(-c3cc(C)on3)n2nc1OCc1cnccn1 [Embodiment 19]
	57.4	32.6 (≈ 64.3 µM)	COc1cc2nnc(-c3cc(C)on3)n2nc1OCc1ccc2c(n1)CCN(C(=O)N1CCOCC1)C2 [Embodiment 202]
	41.6	262 (≈ 686 µM)	COCc1ccc(COc2nn3c(-c4cc(C)on4)nnc3cc2OC)nc1 [Embodiment 32]
	35.4	55.2 (≈ 150 µM)	COCc1cc(-c2nnc3cc(OC)c(OCc4ccccn4)nn23)no1 [Embodiment 28, 3-(7-Methoxy-6-(pyridin-2-ylmethoxy)-[1,2,4]triazolo[4,3-b]pyridazin-3-yl)-5-(methoxymethyl)isoxazole]
	64.9	84.9 (≈ 190 µM)	COc1cc2nnc(-c3cc(C)on3)n2nc1OCc1ccc2c(n1)CCN(CCC#N)C2 [Embodiment 90]
	40.4	32.3 (≈ 95.5 µM)	COc1cc2nnc(-c3cc(C)on3)n2nc1OCc1ccccn1 [Embodiment 33, 3-(7-Methoxy-6-(pyridinyl-2-methoxy)-[1,2,4]-triazolo[4,3-b]pyridazin-3-yl)-5-methylisoxazole]
	47.2	195 (≈ 432 µM)	COCCN1CCc2nc(COc3nn4c(-c5cc(C)on5)nnc4cc3OC)ccc2C1 [Embodiment 80]
	44.3	52.4 (≈ 127 µM)	COCCn1cccc(COc2nn3c(-c4cc(C)on4)nnc3cc2OC)c1=O [Embodiment 75]
	37.2	143 (≈ 386 µM)	COc1cnnc(COc2nn3c(-c4cc(C)on4)nnc3cc2OC)c1 [Embodiment 49]
	37.4	228 (≈ 479 µM)	COc1cc2nnc(-c3cc(C)on3)n2nc1OCc1ccc2c(n1)CCN(CC1(C)COC1)C2 [Embodiment 200]
	44.7	34.8 (≈ 72.8 µM)	COc1cc2nnc(-c3cc(C)on3)n2nc1OCc1ccc2c(n1)CCN(C(=O)C(C)(C)C)C2 [Embodiment 206]
	55.9	204 (≈ 395 µM)	COc1cc2nnc(-c3cc(C)on3)n2nc1OCc1ccc2c(n1)CCN(C1CN(C(=O)C3CC3)C1)C2 [Embodiment 198]

RLM [1] [µL/min/mg]	inhibition at 0.1 µM [2] [%]	solubility thermodynamic at 4 h [3] [µg/mL]	Compound
	65.4	146 (≈ 356 µM)	COc1cc2nnc(-c3cc(C)on3)n2nc1OCc1cc(OC2COC2)cnn1 [Embodiment 180]
	51.3	91.8 (≈ 210 µM)	COCCn1ncc2nc(COc3nn4c(-c5cc(C)on5)nnc4cc3OC)ccc21 [Embodiment 241]
28.2			Cc1cc(-c2nnc3c4ccccc4c(OCc4ccccn4)nn23)no1 [drawing 923, reference compound]
	58.8	32.8 (≈ 74.8 µM)	COc1cc2nnc(-c3cc(C)on3)n2nc1OCc1ccc(OCC2CCOC2)cn1 (stereo not shown) [Embodiment 173]
	58.6	46.6 (≈ 100 µM)	COCCN1CCc2nc(COc3nn4c(-c5cc(C)on5)nnc4cc3OC)ccc2C1=O [Embodiment 110]
	33.9	309 (≈ 660 µM)	COc1cc2nnc(-c3cc(C)on3)n2nc1OCc1ccc(OCCN2CCOCC2)nn1 [Embodiment 164]
	31.9	48.4 (≈ 101 µM)	COc1cc2nnc(-c3cc(C)on3)n2nc1OCc1cccc(C2CCCN(C3COC3)C2)n1 (stereo not shown) [Embodiment 122]
	43.4	255 (≈ 648 µM)	COc1cc2nnc(-c3cc(C)on3)n2nc1OCc1ccc2c(n1)CCNC2 [Embodiment 78]
	53.4	59 (≈ 131 µM)	COc1cc2nnc(-c3cc(C)on3)n2nc1OCc1ccc2c(cnn2C2CCOC2)n1 (stereo not shown) [Embodiment 232]
	53.2	266 (≈ 594 µM)	COc1cc2nnc(-c3cc(C)on3)n2nc1OCc1ccc2c(cnn2C2CN(C)C2)n1 [Embodiment 234]
	43.9	365 (≈ 859 µM)	COc1cc2nnc(-c3cc(C)on3)n2nc1OCc1ccc(C2(F)CN(C)C2)cn1 [Embodiment 124]
	45.6	57.6 (≈ 124 µM)	COc1cc2nnc(-c3cc(C)on3)n2nc1OCc1ccn2c(C3CCOCC3)nnc2n1 [Embodiment 217]
	41.9	146 (≈ 427 µM)	COc1cc2nnc(-c3cc(C)on3)n2nc1OCc1ncnn1C [Embodiment 1, 3-(7-Methoxy-6-((1-methyl-1H-1,2,4-triazol-5-yl)methoxy)-[1,2,4]triazolo[4,3-b]pyridazin-3-yl)-5-methylisoxazole]
	25.1	38 (≈ 89.1 µM)	COCCCOc1ccnc(COc2nn3c(-c4cc(C)on4)nnc3cc2OC)c1 [Embodiment 55]
	40.6	63.9 (≈ 138 µM)	COc1cc2nnc(-c3cc(C)on3)n2nc1OCc1ccc2c(n1)CCN(C1COC1)C2=O [Embodiment 141]
	46.2	263 (≈ 598 µM)	COc1cc2nnc(-c3cc(C)on3)n2nc1OCc1ccc(OCC2(C)COC2)nn1 [Embodiment 150]
	53.1	38.2 (≈ 112 µM)	COc1cc2nnc(-c3cc(C)on3)n2nc1OCc1cnnn1C [Embodiment 158]
	63.6	264 (≈ 569 µM)	COc1cc2nnc(-c3cc(C)on3)n2nc1OCc1ccc2c(n1)CCN(C(=O)N(C)C)C2 [Embodiment 203]
	43.5	35.4 (≈ 80.8 µM)	COc1cc2nnc(-c3cc(C)on3)n2nc1OCc1ccc(OC2CCOCC2)cn1 [Embodiment 174]
